Data published in ChEMBL document CHEMBL1122106, “Quantitative structure-activity relationship by distance geometry: quinazolines as dihydrofolate reductase inhibitors” (J Med Chem, 1982).

Each molecule was assayed on Dihydrofolate reductase (Enterococcus faecium).

Row | Structure (SMILES) | -Delta G
1 | Nc1nc(O)c2cc(CNc3ccc(C(=O)O)cc3)ccc2n1 | 8.8 kcal/mol
2 | Nc1nc(N)c2c([S+]([O-])c3ccc4ccccc4c3)cccc2n1 (stereo not drawn) | 6.9 kcal/mol
3 | Nc1nc(N)c2c([S+]([O-])c3ccc(Cl)c(Cl)c3)cccc2n1 (stereo not drawn) | 7.3 kcal/mol
4 | CCOC(=O)c1ccc(CNc2ccc3nc(N)nc(N)c3c2)cc1 | 11 kcal/mol
5 | Nc1nc(S)nc2ccc(Sc3ccc4ccccc4c3)cc12 | 7.4 kcal/mol
6 | Nc1nc(N)c2cc(Sc3ccc(Cl)c(Cl)c3)ccc2n1 | 12.2 kcal/mol
7 | CCOC(=O)c1ccc(NCc2ccc3nc(N)nc(N)c3c2C)cc1 | 12.3 kcal/mol
8 | Cc1c(CNc2ccc(C(=O)O)cc2)ccc2nc(N)nc(N)c12 | 11.8 kcal/mol
9 | Nc1nc(N)c2cc([S+]([O-])c3ccc4ccccc4c3)ccc2n1 (stereo not drawn) | 12.8 kcal/mol
10 | Nc1nc(N)c2cc(S(=O)(=O)c3ccc(Cl)c(Cl)c3)ccc2n1 | 13.4 kcal/mol
11 | Sc1nc(S)c2cc(Sc3ccc4ccccc4c3)ccc2n1 | 6 kcal/mol
12 | Cc1c(NCc2ccc(C(=O)O)cc2)ccc2nc(N)nc(O)c12 | 6.5 kcal/mol
13 | Nc1nc(O)c2cc(S(=O)(=O)c3ccc(Cl)c(Cl)c3)ccc2n1 | 8.2 kcal/mol
14 | Nc1nc(S)c2cc(S(=O)(=O)c3ccc4ccccc4c3)ccc2n1 | 8 kcal/mol
15 | Nc1ncnc2ccc([S+]([O-])c3ccc4ccccc4c3)cc12 (stereo not drawn) | 7.2 kcal/mol
16 | Nc1nc(N)c2c(CSc3ccc(Cl)cc3)cccc2n1 | 10.9 kcal/mol
17 | O=c1[nH]c(=O)c2cc(Sc3ccc4ccccc4c3)ccc2[nH]1 | 6.9 kcal/mol
18 | Nc1nc(N)c2c(Sc3ccc(Cl)c(Cl)c3)cccc2n1 | 9.9 kcal/mol
19 | CCOC(=O)c1ccc(NCc2ccc3nc(N)nc(O)c3c2)cc1 | 10.6 kcal/mol
20 | Nc1nc(O)c2cc(S(=O)(=O)c3ccc4ccccc4c3)ccc2n1 | 9.6 kcal/mol
21 | Nc1nc(N)c2c(CCc3ccc4ccccc4c3)cccc2n1 | 11.9 kcal/mol
22 | Nc1nc(N)c2c(/C=C/c3ccc4ccccc4c3)cccc2n1 | 10.7 kcal/mol
23 | Nc1nc(N)c2cc(S(=O)(=O)c3ccc4ccccc4c3)ccc2n1 | 12.4 kcal/mol
24 | Cc1c(CNc2ccc(C(=O)NC(CC(=O)O)C(=O)O)cc2)ccc2nc(N)nc(N)c12 (stereo not drawn) | 12.7 kcal/mol
25 | Nc1nc(O)nc2ccc(Sc3ccc4ccccc4c3)cc12 | 6.9 kcal/mol
26 | Nc1nc(N)c2c(S(=O)(=O)c3ccc4ccccc4c3)cccc2n1 | 6.5 kcal/mol
27 | Nc1nc(O)c2cc(Sc3ccc(Cl)c(Cl)c3)ccc2n1 | 9.1 kcal/mol

Row | Structure (SMILES) | -Delta G
28 | Nc1nc(N)c2c(/C=C\c3ccc4ccccc4c3)cccc2n1 | 11.1 kcal/mol
29 | Nc1nc(N)c2c(Sc3ccc4ccccc4c3)cccc2n1 | 10.9 kcal/mol
30 | Nc1nc(N)c2cc(Sc3cccc(C(F)(F)F)c3)ccc2n1 | 13.4 kcal/mol
31 | Nc1ncnc2ccc(S(=O)(=O)c3ccc4ccccc4c3)cc12 | 5.8 kcal/mol
32 | Nc1nc(O)c2cc(Sc3ccc4ccccc4c3)ccc2n1 | 10.2 kcal/mol
33 | CCOC(=O)c1ccc(CNc2ccc3nc(N)nc(N)c3c2Cl)cc1 | 12.2 kcal/mol
34 | Nc1nc(N)c2cc(CNc3ccc(C(=O)O)cc3)ccc2n1 | 13 kcal/mol
35 | CCCCOC(=O)c1ccc(NCc2ccc3nc(N)nc(N)c3c2)cc1 | 11.2 kcal/mol
36 | CCOC(=O)c1ccc(NCc2ccc3nc(N)nc(N)c3c2Cl)cc1 | 12.8 kcal/mol
37 | Nc1nc(S)c2cc(Sc3ccc4ccccc4c3)ccc2n1 | 9.3 kcal/mol
38 | CCCCOC(=O)c1ccc(NCc2ccc3nc(N)nc(N)c3c2Cl)cc1 | 11.4 kcal/mol
39 | Nc1nc(N)c2c(S(=O)(=O)c3ccc(Cl)c(Cl)c3)cccc2n1 | 9 kcal/mol
40 | Nc1nc(O)c2cc(NCc3ccc(C(=O)O)cc3)ccc2n1 | 7.2 kcal/mol
41 | Nc1nc(O)c2cc([S+]([O-])c3ccc4ccccc4c3)ccc2n1 (stereo not drawn) | 8.2 kcal/mol
42 | CCCCOC(=O)c1ccc(NCc2ccc3nc(N)nc(N)c3c2C)cc1 | 12.1 kcal/mol
43 | CCOC(=O)c1ccc(CNc2ccc3nc(N)nc(O)c3c2Cl)cc1 | 9.3 kcal/mol
44 | O=c1[nH]c(=S)c2cc(Sc3ccc4ccccc4c3)ccc2[nH]1 | 6.8 kcal/mol
45 | Nc1ncnc2ccc(Sc3ccc4ccccc4c3)cc12 | 6.5 kcal/mol
46 | CCOC(=O)c1ccc(CNc2ccc3nc(N)nc(O)c3c2C)cc1 | 7.1 kcal/mol
47 | CCOC(=O)c1ccc(NCc2ccc3nc(N)nc(N)c3c2)cc1 | 11.4 kcal/mol
48 | Oc1nc(S)nc2ccc(Sc3ccc4ccccc4c3)cc12 | 6.2 kcal/mol
49 | Nc1nc(O)c2c(Sc3ccc4ccccc4c3)cccc2n1 | 7.4 kcal/mol
50 | Nc1nc(O)c2c(S(=O)(=O)c3ccc4ccccc4c3)cccc2n1 | 9 kcal/mol
51 | CCOC(=O)c1ccc(CNc2ccc3nc(N)nc(O)c3c2)cc1 | 8.6 kcal/mol
52 | Nc1nc(N)c2c(Cl)c(CNc3ccc(C(=O)O)cc3)ccc2n1 | 12.3 kcal/mol
53 | CCOC(=O)c1ccc(CNc2ccc3nc(N)nc(N)c3c2C)cc1 | 13.1 kcal/mol
